“And” between values parts separate entries of the source, which are not always exact repeats. Identical values can stand only once. Like-named read-outs stand apart in the source and are kept apart here.
Columns and labels:
RPMI 8226 = assay: Cell growth inhibition (resazurin), RPMI 8226; details: for cytotoxicity against RPMI 8226, in words: from EC50 values
NF-κB = assay: NF-κB-mediated luciferase reporter gene assay, HEK293 NF-κB/Luc cells, TNF-α stimulation; type: cell-based, human; details: for effect on luciferase activity upon TNF-α stimulation, in words: pretreatment of NF-κB/Luc 293 cells
Protocol: The HEK293 NF-κB/luciferase reporter cell line is a derivative of the human embryonic kidney cell line (ATCC; CRL-1573) and carries a luciferase reporter gene under the regulation of 5× NF-κB binding sites. […] When performing the luciferase assay, the DMEM basal medium was replaced with phenol-red free DMEM basal medium and the G418 was omitted.
For NF-κB-mediated luciferase assays, HEK293 NF-κB/luciferase cells were seeded at 1.5×10^4 cells/well in 90 μl phenol-red free DMEM complete medium into Corning 3917 white opaque-bottom tissue culture plates. For Formula II-2, Formula II-4, Formula II-5A, and Formula II-18, a 400 μM starting dilution was made in 100% DMSO and this dilution was used to generate a 8-point half log dilution series. […] For Formula II-20, a 2.5 mM or 8 mM starting solution was made in 100% DMSO and the final test concentrations ranged from 6.3 μM to 2.0 nM or 20 μM to 6.3 nM, respectively. The plates were returned to the incubator for 1 hour. After 1 hr pretreatment, 10 μl of a 50 ng/ml TNF-α solution, prepared in the phenol-red free DMEM medium was added, and the plates were incubated for an additional 6 hr.
At the end of the TNF-α stimulation, 100 μl of Steady Lite HTS luciferase reagent (Packard Bioscience) was added to each well and the plates were left undisturbed for 10 min at room temperature before measuring the luciferase activity. The relative luciferase units (RLU) were measured by using a Fusion microplate fluorometer (Packard Bioscience).

U266 = assay: Cell growth inhibition (resazurin), U266; details: for EC50: 48 hours drug exposure; for cytotoxicity against U266, in words: from EC50 values
[1] = target: T1, chymotrypsin-like activity of purified rabbit muscle 20S proteasome (Oryctolagus cuniculus, UniProt G1T4Q9); assay: In vitro inhibition of 20S proteasome chymotrypsin-like activity (suc-LLVY-AMC)
T1 sequence (G1T4Q9 1-263): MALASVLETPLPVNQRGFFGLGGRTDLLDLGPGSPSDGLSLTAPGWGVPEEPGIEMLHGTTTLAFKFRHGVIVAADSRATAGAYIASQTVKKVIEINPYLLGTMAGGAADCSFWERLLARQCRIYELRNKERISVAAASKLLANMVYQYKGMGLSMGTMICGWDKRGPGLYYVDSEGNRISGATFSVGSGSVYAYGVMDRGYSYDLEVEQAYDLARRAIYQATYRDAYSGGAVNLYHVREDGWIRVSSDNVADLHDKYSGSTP

[2] = target: T2, trypsin-like activity of purified rabbit muscle 20S proteasome (Oryctolagus cuniculus, UniProt G1SWK8); assay: In vitro inhibition of 20S proteasome trypsin-like activity (Boc-LRR-AMC); details: for inhibition of the trypsin-like activity of the 20S proteasome, in words: under the conditions tested
T2 sequence (G1SWK8 1-271): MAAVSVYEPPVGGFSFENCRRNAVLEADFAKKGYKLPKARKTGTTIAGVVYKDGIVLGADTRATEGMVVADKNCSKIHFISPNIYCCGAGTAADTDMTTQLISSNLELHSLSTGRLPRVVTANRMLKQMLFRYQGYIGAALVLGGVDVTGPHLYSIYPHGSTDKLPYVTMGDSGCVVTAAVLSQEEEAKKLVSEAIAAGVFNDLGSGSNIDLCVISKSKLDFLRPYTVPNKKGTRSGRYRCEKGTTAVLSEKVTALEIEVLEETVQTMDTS

[3] = target: T3, caspase-like activity of purified rabbit muscle 20S proteasome (Oryctolagus cuniculus, UniProt A0A5F9DQW2); assay: In vitro inhibition of 20S proteasome caspase-like activity (Z-LLE-AMC)
T3 sequence (A0A5F9DQW2 1-212): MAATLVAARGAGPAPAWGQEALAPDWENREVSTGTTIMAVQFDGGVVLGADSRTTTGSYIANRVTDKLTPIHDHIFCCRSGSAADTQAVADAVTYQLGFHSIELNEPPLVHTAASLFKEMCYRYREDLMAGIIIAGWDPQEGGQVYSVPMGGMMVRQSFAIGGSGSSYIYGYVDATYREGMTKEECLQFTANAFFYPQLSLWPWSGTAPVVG

[4] = target: T2, trypsin-like activity of purified rabbit muscle 20S proteasome; assay: biochemical
[5] = Homo sapiens, RPMI-8226, 48 h, read-out: RPMI 8226 EC50, Table 2, 48 hours drug exposure, mean ± SD where n≥3
[6] = Homo sapiens, HEK293, Table 5, values printed in μM, 1 hr pretreatment, TNF-α 6 hr, read-out: EC50, NF-κB-mediated luciferase reporter gene assay
[7] = Homo sapiens, U-266, 48 h, read-out: U266 EC50, Table 2
[8] = EC50 Chymotrypsin-like, Table 6, values in nM
[9] = EC50 values, chymotrypsin-like activity, summary of Table 6
[10] = read-out: RPMI 8226 EC50, Table 2, 48 hours drug exposure, mean ± SD where n≥3
[11] = EC50 Chymotrypsin-like, Table 6, values in μM
[12] = EC50 values, chymotrypsin-like activity, range or bound stated in text, summary of Table 6
[13] = EC50 Caspase-like, Table 6, values in μM
[14] = Table 5, values in μM, 1 hr pretreatment, TNF-α 6 hr, read-out: EC50, NF-κB-mediated luciferase reporter gene assay
[15] = EC50 values, caspase-like activity, range in mixed units, summary of Table 6, range from nM to μM
[16] = Homo sapiens, HEK293, read-out: EC50, NF-κB-mediated luciferase reporter gene assay, Table 5, values in nM, 1 hr pretreatment, TNF-α 6 hr
[17] = Homo sapiens, HEK293, read-out: EC50, NF-κB-mediated luciferase reporter gene assay, Table 5, values in μM, 1 hr pretreatment, TNF-α 6 hr

Row | SMILES | EC50 (RPMI 8226; [5]) | EC50 [1, 8] | EC50 [1, 9] | cytotoxicity against RPMI 8226, in words (RPMI 8226) | EC50 (RPMI 8226; [10]) | inhibition of the trypsin-like activity of the 20S proteasome, in words [2] | EC50 [3, 13] | EC50 [4] | effect on luciferase activity upon TNF-α stimulation, in words (NF-κB) | also measured
1 | C[C@@]12OC(=O)[C@]1(C(O)[C@@H]1C=CCCC1)NC(=O)[C@@H]2CCCl (single isomer, unassigned) [Formula II-25] | > 20 µM | – | – | – | – | – | – | – | – | EC50 (NF-κB; [6]): > 20 µM; EC50 (U266; [7]): > 20 µM
2 | CC12OC(=O)C1(CC1C=CCCC1)NC(=O)C2CCCl (stereo not shown) [Formula I-7] | 0.24 µM | 52 ± 2 nM | 13 to 88 nM | cytotoxic | 0.25 µM | – | – | – | – | –
3 | CC12OC(=O)C1(C(=O)C1C=CCCC1)NC(=O)C2CCCl (stereo not shown) [Formula II-13C] | – | – | – | – | – | able to inhibit | > 20 µM | 8.6 µM and 12.8 µM | – | EC50 [1, 11]: 7600 nM and 8800 nM; EC50 [1, 12]: 1400 to 10600 nM
4 | C[C@@]12OC(=O)[C@]1([C@@H](O)[C@@H]1C=CCCC1)NC(=O)[C@@H]2CCO [Formula II-21] | > 20 µM | 8 nM | 2 to 11 nM | – | – | able to inhibit | 2.6 µM and 2.3 µM | 0.879 µM | dose-dependent decrease | EC50 ([1]; Proteasome Chymotrypsin-like EC50, Table 12): 8 nM; EC50 (RPMI 8226; Homo sapiens, RPMI-8226, read-out: Cytotoxicity RPMI EC50, Table 12): > 20 µM; EC50 (NF-κB; [6]): 3.2 µM; EC50 (NF-κB; [14]): 2.7 µM; EC50 (NF-κB; Table 12, read-out: NF-κB EC50): 2.71 µM; EC50 ([2]; read-out: Proteasome Trypsin-like EC50, Table 12): 0.879 µM; EC50 [3, 15]: 0.956 to 8.7 µM; EC50 ([3]; Proteasome Caspase-like EC50, Table 12): 2.58 µM and 2.33 µM; EC50 (U266; [7]): 6.09 µM; cytotoxicity against U266, in words (U266): cytotoxic; EC50 (U266; read-out: U266 EC50, Table 2): 9.67 µM
5 | CCC(=O)OCC[C@H]1C(=O)N[C@@]2([C@@H](O)[C@@H]3C=CCCC3)C(=O)O[C@@]12C [Formula II-22] | 9.72 µM | 7 nM and 3 nM | 2 to 11 nM | cytotoxic | 11.2 µM | able to inhibit | 1.3 µM and 1.4 µM | 0.289 µM | dose-dependent decrease | EC50 (NF-κB; [16]): 0.728 µM; EC50 (NF-κB; [17]): 1 µM; EC50 [3, 15]: 0.956 to 8.7 µM; cytotoxicity against U266, in words (U266): cytotoxic
6 | CC[C@@]12OC(=O)[C@]1([C@@H](O)[C@@H]1C=CCCC1)NC(=O)[C@@H]2CCCl [Formula II-24C] | 2.32 µM | – | – | cytotoxic | 1.64 µM | able to inhibit | > 20 µM | 3.3 µM and 3.1 µM | dose-dependent decrease | EC50 [1, 11]: 2000 nM; EC50 [1, 12]: 1400 to 10600 nM; EC50 (NF-κB; [17]): 5.3 µM; EC50 (U266; [7]): 1.15 µM; cytotoxicity against U266, in words (U266): cytotoxic; EC50 (U266; read-out: U266 EC50, Table 2): 0.825 µM
7 | C[C@@]12OC(=O)[C@]1([C@@H](O)[C@@H]1C=CCCC1)NC(=O)[C@H]2CCCl [Formula II-26] | 2.23 µM | – | – | cytotoxic | 1.61 µM | able to inhibit | – | – | dose-dependent decrease | EC50 (NF-κB; [6]): 4.3 µM; EC50 (NF-κB; [14]): 4.1 µM; cytotoxicity against U266, in words (U266): cytotoxic; EC50 (U266; read-out: U266 EC50, Table 2): 0.829 µM
8 | CC[C@@H]1C(=O)N[C@@]2([C@@H](O)[C@@H]3C=CCCC3)C(=O)O[C@@]12C [Formula II-27] | – | – | – | – | – | – | – | > 20 µM | – | EC50 (NF-κB; [6]): > 20 µM
9 | C[C@@H]1C(=O)N[C@@]2([C@@H](O)[C@@H]3C=CCCC3)C(=O)O[C@@]12C [Formula II-28] | > 20 µM | – | – | – | – | – | > 20 µM | > 20 µM | – | EC50 [1, 11]: 3200 nM and 3300 nM; EC50 [1, 12]: 1400 to 10600 nM; EC50 (NF-κB; [17]): > 20 µM; EC50 (U266; [7]): > 20 µM
10 | C[C@@]12OC(=O)[C@]1(C(=O)C1=CC(O)CCC1)NC(=O)[C@]2(C)CCCl (stereo partly shown) [Formula II-31] | > 20 µM | – | – | – | – | – | – | – | – | –
11 | C[C@@]12OC(=O)[C@]1(C(=O)C1=CC(O)CCC1)NC(=O)[C@]2(C)CCCl (stereo partly shown) [Formula II-32] | – | – | – | – | > 20 µM | – | – | – | – | –
12 | C[C@@]12OC(=O)[C@]1([C@@H](O)[C@@H]1C=CCCC1)NC(=O)[C@@H]2CCN=C=S [Formula II-38] | 2.6 µM | 3.4 ± 0.2 nM | 2 to 11 nM | cytotoxic | 1.8 µM | – | – | – | – | –
13 | COC(=O)CCSC(=O)[C@]1([C@@H](O)[C@@H]2C=CCCC2)NC(=O)[C@H](CCCl)[C@]1(C)O [Formula II-44] | 0.012 µM | 11 nM and 8.7 nM | 2 to 11 nM | cytotoxic | 0.0088 µM | able to inhibit | 1.4 µM | 0.055 µM and 0.054 µM | dose-dependent decrease | EC50 (NF-κB; [16]): 0.017 ± 0.004 µM; EC50 [3, 15]: 0.956 to 8.7 µM
14 | CC[C@H]1C(=O)N[C@](C(=O)SCCC(=O)OC)([C@@H](O)[C@@H]2C=CCCC2)[C@@]1(C)O [Formula II-47] | 8 ± 3.4 µM | 50 ± 10 nM | 13 to 88 nM | cytotoxic | – | – | – | – | – | –
15 | COC(=O)C(CSC(=O)[C@]1([C@@H](O)[C@@H]2C=CCCC2)NC(=O)[C@H](CCCl)[C@]1(C)O)NC(C)=O (stereo partly shown) [Formula II-50] | 0.01 µM | – | – | cytotoxic | – | – | – | – | – | –
16 | COC(=O)CCSC(=O)C1(C(O)C2C=CCCC2)NC(=O)C2CCOC21C (stereo not shown) [Formula VI-1A] | 8.4 µM | 274 nM and 207 nM | 207 to 964 nM | cytotoxic | 7.8 µM | able to inhibit | 7.9 µM and 8.7 µM | 3.1 µM and 3 µM | – | EC50 (NF-κB; [17]): > 20 µM; EC50 [3, 15]: 0.956 to 8.7 µM

Reference: patent publication US7544814B2, “[3.2.0] Heterocyclic compounds and methods of using the same” (Nereus Pharmaceuticals, Inc., priority 2004, dated 2009)
